Test results reported in US4242335A, “Novel 17α-aryl-steroids” (Roussel Uclaf, priority 1977, dated 1980).

What was measured:
[1] = test system: proliferation of endometric lacework (uterus); assay: In vivo progestomimetic activity, Clauberg test on immature rabbits; set-up: species or system rabbit; details: for endometrial proliferation, MacPhail Units: subcutaneous, 5 days; for progestomimetic activity in vivo (in words): compared with ethynylnortestosterone, Table III
Procedure: The progestomimetic activity of products A, B and C were determined by the Clauberg test on immature rabbits previously sensibilized by subcutaneous administration of estradiol for 5 days at a daily dose of 5 μg. The test products were used in solution in olive oil containing 5% of benzyl alcohol and were subcutaneously administered for 5 days at different doses. The animals were killed on the 6th day and the uterus was removed to determine the proliferation of endometric lacework which is characteristic of progestomimetic activity. The results were compared with ethynylnortesterone administered in the same method in the same solvent. The results were expressed in MacPhail units in Table III.

[2] = molecular target: T1, uterine reception of progesterone (Oryctolagus cuniculus, UniProt P06186); assay: Progestomimetic activity by hormonal receptor method (displacement of tritiated product R in rabbit uterus cytosol); format: binding; details: for activity weaker than progesterone: from Table I; for progestomimetic activity (in words): conclusion from Table I; for relative affinity of the test product (ARL), progestomimetic: rabbit uterus cytosol, 0° C., 2 hours, progesterone = 100
T1 construct: from tissue; host or cells: uterus cytosol (105,000 g supernatant) of immature rabbits primed with estradiol
T1 sequence (P06186 1-930): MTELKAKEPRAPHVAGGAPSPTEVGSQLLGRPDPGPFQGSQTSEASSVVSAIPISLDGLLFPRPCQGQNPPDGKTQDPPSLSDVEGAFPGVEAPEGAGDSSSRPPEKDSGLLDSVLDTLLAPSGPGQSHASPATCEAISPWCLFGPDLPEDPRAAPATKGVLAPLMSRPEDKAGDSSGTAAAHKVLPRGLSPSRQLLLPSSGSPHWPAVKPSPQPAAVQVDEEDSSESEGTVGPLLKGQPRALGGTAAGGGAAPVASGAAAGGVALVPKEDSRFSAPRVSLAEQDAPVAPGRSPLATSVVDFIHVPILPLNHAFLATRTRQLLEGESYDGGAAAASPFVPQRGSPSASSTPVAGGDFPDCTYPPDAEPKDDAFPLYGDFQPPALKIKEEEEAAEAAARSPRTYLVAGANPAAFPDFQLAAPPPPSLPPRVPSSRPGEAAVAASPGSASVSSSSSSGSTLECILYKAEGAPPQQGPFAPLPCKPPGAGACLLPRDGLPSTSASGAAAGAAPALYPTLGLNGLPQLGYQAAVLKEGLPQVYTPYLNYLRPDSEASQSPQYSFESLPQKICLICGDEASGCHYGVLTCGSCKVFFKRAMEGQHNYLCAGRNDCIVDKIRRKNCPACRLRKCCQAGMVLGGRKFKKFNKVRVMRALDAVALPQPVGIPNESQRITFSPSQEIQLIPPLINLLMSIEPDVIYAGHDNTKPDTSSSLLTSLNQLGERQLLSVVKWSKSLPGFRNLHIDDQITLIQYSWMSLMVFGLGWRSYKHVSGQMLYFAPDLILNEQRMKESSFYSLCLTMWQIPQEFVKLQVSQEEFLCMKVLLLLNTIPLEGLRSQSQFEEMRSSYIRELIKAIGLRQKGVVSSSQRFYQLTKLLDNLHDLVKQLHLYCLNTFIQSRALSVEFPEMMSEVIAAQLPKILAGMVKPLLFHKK
Procedure: The progestomimetic activity was determined by the hormonal receptor method of Raynaud et al [J. Ster. Biochem., Vol. 6 (1975), p-615-622 and Physiology and Genetics of Reproduction, part A (1975), p. 143-160]. Immature rabbits received subcutaneously 25γ of estradiol and 5 days later, the animals were sacrificed and the uterus was removed and homogenized in a buffered solution of 10 mM of tromethamine, 0.25 M of saccharose and a pH of 7.4 with hydrochloric acid. The homogenate was centrifuged at 105,000 g during one hour and the surnageant or cytosol was adjusted to a dilution of 1/50 (weight/volume). The resulting solution was incubated at 0° C. for 2 hours in tubes with the same volume of cytosol with a fixed concentration of tritiated 17,21-dimethyl-19-nor-Δ^4,9 -pregnadiene-3-20-dione (designated as tritiated Product R) in the presence or not of an increasing concentration of radioinactive 17,21-dimethyl-19-nor-Δ^4,9 -pregnadiene-3,20-dione (designated as cold product R) or progesterone or the test product. The radioactivity of the tritiated product R was determined after 2 hours by the technique of adsorption on carbon-dextran (1.25-0.625%). The curves representing the percentage of tritiated product R as a function of the log of the concentration, of cold product R, of progresterone or the test products and the I50 straight line parallel to the axis of the abcissess and ordinates [formula] were ploted. B/T max. is the percentage of tied tritiated product R when the product is not added and B/T min. is the percentage of tied tritiated product R when the maximum amount of cold product R is added. The intersections of these I50 straight lines and the curves permit the determination of the values: CP and CX: CP - concentration of cold progesterone which inhibits by 50% the fixation of the tritiated product R and CX - concentration of test product which inhibits by 50% the fixation of the tritiated product R. The relative affinity of the test product (ARL) was determined by the formula [formula] and the results are reported in Table I.

[3] = molecular target: T2, prostatic reception of testosterone (Rattus norvegicus, UniProt P15207); assay: Androgenic activity by hormonal receptor method (displacement of tritiated product R in rat prostate cytosol); format: binding; details: for relative affinity of the test product (ARL), androgenic: castrated male rat prostate cytosol, 0° C., 2 hours, testosterone = 100; for affinity for prostatic reception of testosterone (in words) / androgenic activity (in words): conclusion from Table II
T2 construct: The prostate was recovered from male rats castrated 24 hours earlier and was homogenized; from tissue; host or cells: prostate cytosol (105,000 g supernatant) of male rats castrated 24 hours earlier
T2 sequence (P15207 1-902): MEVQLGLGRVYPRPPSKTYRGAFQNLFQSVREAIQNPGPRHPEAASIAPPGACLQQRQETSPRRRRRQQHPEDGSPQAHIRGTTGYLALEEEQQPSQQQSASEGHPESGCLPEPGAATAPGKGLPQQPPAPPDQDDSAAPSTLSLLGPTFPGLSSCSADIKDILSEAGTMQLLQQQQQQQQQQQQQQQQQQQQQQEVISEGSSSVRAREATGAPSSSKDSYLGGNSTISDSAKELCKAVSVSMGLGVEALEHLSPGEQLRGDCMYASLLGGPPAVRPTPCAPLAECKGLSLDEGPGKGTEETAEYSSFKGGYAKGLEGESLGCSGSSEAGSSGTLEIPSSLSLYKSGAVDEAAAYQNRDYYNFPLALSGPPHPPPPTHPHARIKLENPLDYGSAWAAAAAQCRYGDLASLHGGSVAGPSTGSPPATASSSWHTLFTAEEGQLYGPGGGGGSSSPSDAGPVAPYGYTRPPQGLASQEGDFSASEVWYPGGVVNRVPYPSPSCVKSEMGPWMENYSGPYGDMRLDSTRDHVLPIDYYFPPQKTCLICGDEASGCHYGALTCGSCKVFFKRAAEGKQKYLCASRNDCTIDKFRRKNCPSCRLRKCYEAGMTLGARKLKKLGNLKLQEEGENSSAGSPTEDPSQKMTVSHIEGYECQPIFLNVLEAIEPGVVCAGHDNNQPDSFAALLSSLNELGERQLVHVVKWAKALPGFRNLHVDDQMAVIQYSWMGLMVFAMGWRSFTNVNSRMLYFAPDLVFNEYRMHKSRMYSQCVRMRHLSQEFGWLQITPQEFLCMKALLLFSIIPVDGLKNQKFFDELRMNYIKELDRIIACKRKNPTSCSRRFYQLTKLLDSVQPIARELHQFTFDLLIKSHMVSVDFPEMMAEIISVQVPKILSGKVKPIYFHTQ
Procedure: This test also used the method of Raynaud et al discussed above. The prostate was recovered from male rats castrated 24 hours earlier and was homogenized in a buffer containing 10 mM of tromethamine and 0.25 M of saccharose and sufficient hydrochloric acid for a pH of 7.4 The homogenate was centrifuged at 105,000 g for one hour and the surnageant liquid or cytosol was adjusted to a dilution of 1/5 (weight/volume).
The radioactivity of the tied tritiated product was determined after 2 hours by absorption technique on carbondextran (1.25%-0.625%). […] B/T max. is the percentage of tied tritiated product R when the product is not added and B/T min. is the percentage of tied tritiated product R when the maximum amount of cold product R is added.

Structure (SMILES)	endometrial proliferation, MacPhail Units ([1]; dose 100 γ) [MacPhail Units]	endometrial proliferation, MacPhail Units ([1]; dose 500 γ) [MacPhail Units]	endometrial proliferation, MacPhail Units ([1]; dose 2500 γ) [MacPhail Units]	activity weaker than progesterone ([2]; compared with progesterone)	progestomimetic activity (in words) [2]	relative affinity of the test product (ARL), progestomimetic [2]	relative affinity of the test product (ARL), androgenic [3]	affinity for prostatic reception of testosterone (in words) [3]	androgenic activity (in words) [3]	progestomimetic activity in vivo (in words) [1]	endometrial proliferation, MacPhail Units ([1]; dose 1 mg) [MacPhail Units]	endometrial proliferation, MacPhail Units ([1]; dose 2 mg) [MacPhail Units]	endometrial proliferation, MacPhail Units ([1]; dose 200 γ) [MacPhail Units]	affinity for specific uterine reception of progesterone (in words) ([2]; compared with progesterone)
C#C[C@]1(O)CC[C@H]2[C@@H]3CCC4=CC(=O)CC[C@@H]4[C@H]3CC[C@@]21C [ethynylnortestosterone, reference compound]	1.2	1.5	2											
C[C@]12CCC3=C4CCC(=O)C=C4CC[C@H]3[C@@H]1CC[C@@]2(O)c1ccccc1 [Product B, 17α-phenyl-Δ^4,9-estradiene-17β-ol-3-one]				about 3 times	progestomimetics	37	0.2	practically devoid of an affinity	devoid of adrogenic activity	progestomimetic activity greater than ethynylnortestosterone	2.8	3.0	1	
C[C@]12C=CC3=C4CCC(=O)C=C4CC[C@H]3[C@@H]1CC[C@@]2(O)c1ccccc1 [Product C, 17α-phenyl-Δ^4,9,11-estratriene-17β-ol-3-one]				about 3 times	progestomimetics	27	≤ 0.1	practically devoid of an affinity	devoid of adrogenic activity	about the same order of activity as ethynylnortestosterone	1.8	2.9	0.8	
C[C@]12CC[C@H]3[C@@H](CCC4=CC(=O)CC[C@@H]43)[C@@H]1CC[C@@]2(O)c1ccccc1 [Product A, 17α-phenyl-Δ^4-estrene-17β-ol-3-one]	2	2.7	3		progestomimetics	80	0.3	practically devoid of an affinity	devoid of adrogenic activity	progestomimetic activity greater than ethynylnortestosterone				comparable to that of progesterone
